Data as given in patent US20180338937A1, “PHARMACEUTICAL PREPARATIONS” (Analyticon Discovery GmbH, priority 2015, published 2018).

Experiments:
cyclooxygenase = conditions: U.S. Pat. No. 6,365,634 B1 (RUSSEL); cited from earlier work
[1] = Sensory tasting of a solution of an ibuprofen suspension (Asda), sip and spit; type: in vivo, human; conditions: Ibuprofen suspension (orange taste, no sweeteners) in water, ibuprofen 5 mg/ml, 25 μM dehydroabietic acid, 0.5% ethanol, vs comparison sample
Experimental: Taste Modulation of Ibuprofen in Suspension (Asda) The sensory evaluation of the samples was performed by a team of five experienced assessors. Details may be taken from the following Table 5: [table]

[2] = Sensory tasting of a Nurofen ® tablet solution, sip and spit; type: in vivo, human; conditions: Nurofen ® tablets dissolved in water, ibuprofen 5 mg/ml, 25 μM dehydroabietic acid, 0.5% ethanol, vs comparison sample
Experimental: Taste Modulation of Ibuprofen in the Form of Tablets with Lysine (Nurofen®) The sensory evaluation of the samples was performed by a team of five experienced assessors.

[3] = Sensory tasting of a Calpol ® solution, sip and spit, five assessors; type: in vivo, human; conditions: Calpol ® suspension in water, paracetamol 12.5 mg/ml, 25 μM dehydroabietic acid, 0.5% ethanol
Experimental: Taste Modulation of Paracetamol in a Commercially Available Formulation The sensory evaluation of the samples was performed by a team of five experienced assessors. Details may be taken from the following Table 1: [table]

[4] = Sensory tasting of a solution of a Nurofen ® suspension, sip and spit; type: in vivo, human; conditions: Nurofen ® suspension dissolved in water, ibuprofen 5 mg/ml, 25 μM dehydroabietic acid, 0.5% ethanol, vs comparison sample
Experimental: Taste Modulation of Ibuprofen in Suspension (Nurofen®) The sensory evaluation of the samples was performed by a team of five experienced assessors.

[5] = Sensory tasting of a maltitol/ibuprofen solution, sip and spit; type: in vivo, human; conditions: Ibuprofen/maltitol syrup in water, 25 μM dehydroabietic acid, 0.5% ethanol, vs comparison sample
[6] = Sensory tasting of a maltitol/paracetamol solution, sip and spit; type: in vivo, human; conditions: Paracetamol/maltitol syrup in water, paracetamol 12.5 mg/ml, 25 μM dehydroabietic acid, 0.5% ethanol, vs comparison sample
Experimental: Taste Modulation of Paracetamol in a Maltitol Formulation The sensory evaluation of the samples was performed by a team of five experienced assessors. Details may be taken from the following Table 2: [table]

[7] = Sepulveda et al., Pharmacol. Res. 52(5), 429-437 (2005); cited from earlier work
[8] = cited from earlier work

Question: For `CC(C)c1ccc2c(c1)CC[C@H]1[C@](C)(C(=O)O)CCC[C@]21C` [dehydroabietic acid], which “inhibition of the cyclooxygenase” value (cyclooxygenase) is on record?
Answer: inhibit the cyclooxygenase

Question: And the “Evaluation of the sample: bitterness” value [1]?
Answer: less bitter

Question: What about the “Evaluation of the sample: orange aroma” value [1] of the same compound?
Answer: intensification of the orange aroma

Question: And the “Evaluation of the sample: overall taste” value [1]?
Answer: more pleasant taste

Question: And the “Evaluation of the sample: sweetness” value [1]?
Answer: more sweet

Question: What about the “Evaluation of the sample: bitterness” value [2] of the same compound?
Answer: reduced bitterness

Question: And the “Evaluation of the sample: delayed burning sensation in the throat” value [2]?
Answer: no change to the delayed burning

Question: And the “Evaluation of the sample: metallic taste” value ([3]; vs comparison sample)?
Answer: metallic taste reduced

Question: What about the “Evaluation of the sample: bitterness” value ([3]; vs comparison sample without dehydroabietic acid) of the same compound?
Answer: very significantly less bitter

Question: And the “Evaluation of the sample: typical natural taste of ibuprofen” value [4]?
Answer: Masking of the typical natural taste

Question: What about the “Evaluation of the sample: aftertaste” value ([5]; 5 mg/ml) of the same compound?
Answer: less unpleasant aftertaste

Question: What about the “Evaluation of the sample: burning sensation on the tongue/in the throat” value ([5]; 5 mg/ml) of the same compound?
Answer: alleviation of the burning sensation

Question: What about the “Evaluation of the sample: mouth dryness” value ([5]; 5 mg/ml) of the same compound?
Answer: reduced mouth dryness

Question: And the “Evaluation of the sample: sweetness” value ([5]; 5 mg/ml)?
Answer: slightly sweet

Question: What about the “Evaluation of the sample: bitterness” value ([5]; ibuprofen 5 mg/ml) of the same compound?
Answer: less bitter

Question: And the “Evaluation of the sample: aftertaste” value [6]?
Answer: pleasant aftertaste

Question: And the “Evaluation of the sample: bitterness” value [6]?
Answer: Bitterness reduced and delayed

Question: And the “Evaluation of the sample: taste at the beginning” value [6]?
Answer: better taste at the beginning and more

Question: What about the “Evaluation of the sample: unpleasant/metallic taste” value [6] of the same compound?
Answer: no long-lasting unpleasant/metallic taste

Question: What about the gastroprotective properties [7] of the same compound?
Answer: has gastroprotective properties

Question: Which “daily uptake considered harmless” value [8] does the source give for `C=C1C[C@@]23CC[C@H]4[C@@](C)(CCC[C@@]4(C)C(=O)O[C@@H]4O[C@H](CO)[C@@H](O)[C@H](O)[C@H]4O)[C@@H]2CC[C@]1(O[C@@H]1O[C@H](CO)[C@@H](O)[C@H](O)[C@H]1O[C@@H]1O[C@H](CO)[C@@H](O)[C@H](O)[C@H]1O)C3` [stevioside] here?
Answer: up to 4 mg stevioside per kilogramme of bodyweight
